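Following 48 hours of exposure in 96-well plates, responses at five concentrations were used to interpolate endpoints linearly. At the GI50, growth is halved. Definition used: TGI = concentration required for complete inhibition of growth.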
Key:
Experiment in all cases: NCI anticancer screen, dose series, 48 h
NCI-H460 lung = test system: NCI-H460 lung
ACHN renal = test system: ACHN renal
SK-OV-3 ovarian = test system: SK-OV-3 ovarian
HOP-92 NSCLC = test system: HOP-92 NSCLC
NCI-H226 lung = test system: NCI-H226 lung
HT29 colon = test system: HT29 colon
HL-60(TB) leukemia = test system: HL-60(TB) leukemia
SF-539 CNS = test system: SF-539 CNS
HCT-116 colon = test system: HCT-116 colon
SF-268 CNS = test system: SF-268 CNS

Structure (SMILES)	TGI (NCI-H460 lung)	TGI (ACHN renal)	TGI (SK-OV-3 ovarian)	TGI (HOP-92 NSCLC)	TGI (NCI-H226 lung)	TGI (HT29 colon)	TGI (HL-60(TB) leukemia)	TGI (SF-539 CNS)	TGI (HCT-116 colon)	TGI (SF-268 CNS)	GI50 (SF-539 CNS)	GI50 (NCI-H460 lung)	GI50 (ACHN renal)	GI50 (SK-OV-3 ovarian)	GI50 (HT29 colon)	GI50 (HCT-116 colon)	GI50 (HOP-92 NSCLC)	GI50 (NCI-H226 lung)	GI50 (SF-268 CNS)	GI50 (HL-60(TB) leukemia)
C[C@]12CC[C@@H]3c4ccc(OCCN5CCCC5)cc4CC[C@H]3[C@@H]1CCC2=O	53.9 µM	> 100 µM	> 100 µM	> 100 µM	54 µM	> 100 µM	> 100 µM													
O=C(O)c1nccnc1C(=O)O	> 100 µM		> 100 µM	> 100 µM	> 100 µM	> 100 µM	> 100 µM	> 100 µM	> 100 µM	> 100 µM										
Cc1ccc(C2CC(c3cccc(Nc4ccncc4)c3)=NN2c2ccccc2)cc1 (stereo not given)	3.33 µM	3.05 µM	5.88 µM			5.63 µM		3.16 µM			1.74 µM	1.8 µM	1.69 µM	2.34 µM	2.23 µM					
C[N+](C)([O-])Cc1cc(-c2ccccc2)ccc1O	> 100 µM	> 100 µM		> 100 µM	> 100 µM	> 100 µM			> 100 µM	> 100 µM										
O=c1nc2sc3ccc4ccccc4c3n2[nH]c1=O	> 100 µM		> 100 µM		> 100 µM	> 100 µM	> 100 µM	> 100 µM	> 100 µM	> 100 µM										
CCCCN=C1OCc2[nH][nH]c(=O)c21	> 100 µM	> 100 µM	> 100 µM	> 100 µM	> 100 µM	> 100 µM	> 100 µM	> 100 µM	> 100 µM	> 100 µM										
CCCOC1OC(CS(=O)(=O)O)C(O)C(O)C1O (stereo not given)	> 100 µM		> 100 µM	> 100 µM	> 100 µM	> 100 µM	> 100 µM		> 100 µM											
COc1cc2c(c(OC(C)=O)c1OC(C)=O)-c1ccc(SC)c(=O)cc1C(NC(C)=O)CC2 (stereo not given)	20 µM	> 100 µM	> 36 µM	7.29 µM	15.1 µM	> 44.8 µM	1.34 µM	1.64 µM	17.5 µM	> 100 µM										
[O-][n+]1c(-c2ccccc2)c2nc3ccccc3nc2c2ccccc21	> 100 µM	> 100 µM	> 100 µM	> 100 µM	> 100 µM	> 100 µM		> 100 µM	> 100 µM	> 100 µM										
N#CCCN(CCC#N)c1ccc(/C=C2\N=C(c3cc([N+](=O)[O-])ccc3Cl)N(NC(=O)CC(=O)Nc3ccccc3Cl)C2=O)cc1		> 100 µM	> 100 µM	> 100 µM	35.6 µM			> 100 µM	> 100 µM	> 100 µM										
CCN(CC)CCNc1ccc2nnn3c4ccccc4c(=O)c1c23	6.27 µM	> 100 µM	62.5 µM	11.7 µM	8.09 µM	14.2 µM	8.59 µM	19.6 µM	35.2 µM	19.2 µM										
CCOC(=O)NC(Nc1ccc(Cl)cn1)(C(F)(F)F)C(F)(F)F	> 100 µM	> 100 µM	> 100 µM		> 100 µM	> 100 µM	> 100 µM	> 100 µM	> 100 µM	> 100 µM										
CC(C)CN(CC#N)CC(C)C	> 100 µM	> 100 µM	> 100 µM	> 100 µM	> 100 µM	> 100 µM	> 100 µM		> 100 µM	> 100 µM										
O=C(O)Cn1c2c(c3c(O)cccc31)C(=O)c1ccccc1-2	> 100 µM	> 100 µM	> 100 µM	> 100 µM	> 100 µM	> 100 µM	> 100 µM	> 100 µM	> 100 µM	> 100 µM	5.62 µM	> 100 µM	> 100 µM	> 100 µM	> 100 µM	93.6 µM	> 100 µM	> 100 µM	> 100 µM	> 100 µM
NC(N)=NC(N)=Nc1ccccc1 (tested in a mixture with another compound)	> 100 µM	> 100 µM	> 100 µM		> 100 µM	> 100 µM	> 100 µM	> 100 µM	> 100 µM	> 100 µM										
C=CCc1cccc(/C=N\N=C(/N)NO)c1O	17.1 µM		32.5 µM	> 67.9 µM	11.5 µM	> 58.5 µM	> 21.4 µM	6.81 µM	> 79.6 µM	> 100 µM										

Source: PubChem BioAssay (NCI)
